From ChEMBL document CHEMBL2062514 (J Med Chem, 2012) come the findings set out here.

Assay [1] deals with T1, Adenosine receptor A1 (Homo sapiens) (UniProt P30542).
T1 sequence (whole entry): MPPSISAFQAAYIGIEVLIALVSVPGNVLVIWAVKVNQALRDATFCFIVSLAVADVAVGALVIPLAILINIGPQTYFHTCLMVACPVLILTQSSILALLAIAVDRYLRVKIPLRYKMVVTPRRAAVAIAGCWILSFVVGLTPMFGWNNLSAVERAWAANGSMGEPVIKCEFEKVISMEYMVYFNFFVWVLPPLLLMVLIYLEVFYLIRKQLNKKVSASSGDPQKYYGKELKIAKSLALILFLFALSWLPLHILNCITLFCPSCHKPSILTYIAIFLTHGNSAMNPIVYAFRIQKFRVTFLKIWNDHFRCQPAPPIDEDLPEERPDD
As to the kind of experiment: Displacement of [3H]R-PIA from human recombinant adenosine A1 receptor expressed in CHO cells at 10 uM after 60 mins by liquid scintillation counting. In kind it is cell-based.

Another assay has as its target Adenosine receptor A2a (Homo sapiens, UniProt P29274). As to the kind of experiment: Displacement of [3H]CGS21680 from human recombinant adenosine A2A receptor expressed in HEK293 cells at 10 uM after 60 mins by liquid scintillation counting. The class given is cell-based.
Assay [2] has as its target T2, Adenosine receptor A2b (Homo sapiens) (UniProt P29275).
T2 sequence (whole entry): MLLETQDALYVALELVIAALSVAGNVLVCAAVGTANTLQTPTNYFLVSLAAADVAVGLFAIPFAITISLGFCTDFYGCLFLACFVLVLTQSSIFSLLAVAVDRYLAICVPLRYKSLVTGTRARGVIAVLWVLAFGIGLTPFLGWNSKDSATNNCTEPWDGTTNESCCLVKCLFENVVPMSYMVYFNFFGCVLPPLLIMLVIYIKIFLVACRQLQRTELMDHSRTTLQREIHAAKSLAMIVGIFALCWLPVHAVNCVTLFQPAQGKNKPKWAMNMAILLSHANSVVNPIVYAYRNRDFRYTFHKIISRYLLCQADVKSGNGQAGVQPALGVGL
In words: Agonist activity at human adenosine A2B receptor by cAMP accumulation assay relative to NECA. In kind it is functional.

In assay [3] the target is T3, Adenosine receptor A1 (Mus musculus) (UniProt Q60612).
T3 sequence (whole entry): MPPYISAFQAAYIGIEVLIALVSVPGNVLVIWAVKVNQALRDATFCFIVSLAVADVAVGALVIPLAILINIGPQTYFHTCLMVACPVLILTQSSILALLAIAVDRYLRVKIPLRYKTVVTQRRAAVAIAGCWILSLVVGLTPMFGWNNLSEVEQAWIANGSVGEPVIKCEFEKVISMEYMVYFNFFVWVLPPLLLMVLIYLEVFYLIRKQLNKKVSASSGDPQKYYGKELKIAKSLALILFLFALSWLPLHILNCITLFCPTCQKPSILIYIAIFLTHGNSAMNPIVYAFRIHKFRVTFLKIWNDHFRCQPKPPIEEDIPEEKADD
In words: Displacement of from mouse adenosine A1 receptor expressed in HEK293 cells at 10 uM after 60 mins by liquid scintillation counting. Also on record: reference not given here.

For assay [4], the target named is Adenosine receptor A2a (Mus musculus) (UniProt Q60613). In words: Displacement of [3H]CGS21680 from mouse adenosine A2A receptor expressed in HEK293 cells at 10 uM after 60 mins by liquid scintillation counting.
Sequence of Adenosine receptor A2a (Mus musculus) (Q60613 whole entry): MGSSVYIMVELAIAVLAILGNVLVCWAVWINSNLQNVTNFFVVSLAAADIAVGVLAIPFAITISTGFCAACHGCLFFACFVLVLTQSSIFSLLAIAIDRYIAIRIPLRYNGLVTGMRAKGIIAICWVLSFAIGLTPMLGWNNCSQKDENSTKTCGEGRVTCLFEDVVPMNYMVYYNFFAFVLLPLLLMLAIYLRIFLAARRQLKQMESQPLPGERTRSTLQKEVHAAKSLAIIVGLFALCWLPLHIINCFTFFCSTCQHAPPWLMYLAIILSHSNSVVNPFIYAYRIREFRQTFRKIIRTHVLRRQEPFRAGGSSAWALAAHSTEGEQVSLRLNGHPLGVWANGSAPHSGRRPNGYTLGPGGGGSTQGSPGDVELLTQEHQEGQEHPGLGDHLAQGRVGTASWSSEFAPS
The target of assay [5] is T4, Adenosine receptor A3 (Homo sapiens) (UniProt P0DMS8).
T4 sequence (whole entry): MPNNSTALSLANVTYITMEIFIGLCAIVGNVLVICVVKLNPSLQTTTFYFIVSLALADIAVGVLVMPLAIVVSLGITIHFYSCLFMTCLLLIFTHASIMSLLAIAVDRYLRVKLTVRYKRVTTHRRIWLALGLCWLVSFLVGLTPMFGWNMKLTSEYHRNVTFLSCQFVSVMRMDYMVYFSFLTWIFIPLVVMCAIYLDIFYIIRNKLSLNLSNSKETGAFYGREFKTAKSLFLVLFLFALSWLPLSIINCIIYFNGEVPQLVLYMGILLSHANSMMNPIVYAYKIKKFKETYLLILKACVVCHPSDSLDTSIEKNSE
As to the kind of experiment: Agonist activity at human recombinant adenosine A3 receptor expressed in CHO cells assessed as inhibition of forskolin-stimulated cAMP production at 10 uM incubated for 30 mins prior to forskolin-stimulation measured after 15 mins by enzyme immunoassay relative to NECA. In kind it is functional, cell-based.

The target in the next assay is T5, Adenosine receptor A3 (Mus musculus, UniProt Q61618).
T5 sequence (Q61618 whole entry): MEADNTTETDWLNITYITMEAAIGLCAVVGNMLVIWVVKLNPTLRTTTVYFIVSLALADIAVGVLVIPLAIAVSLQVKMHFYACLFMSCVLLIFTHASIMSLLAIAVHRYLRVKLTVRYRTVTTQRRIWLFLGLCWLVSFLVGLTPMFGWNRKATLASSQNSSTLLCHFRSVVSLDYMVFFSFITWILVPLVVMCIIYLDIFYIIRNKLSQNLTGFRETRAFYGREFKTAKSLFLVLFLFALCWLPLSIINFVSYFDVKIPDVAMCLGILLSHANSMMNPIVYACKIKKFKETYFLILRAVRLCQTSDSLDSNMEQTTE
As to the kind of experiment: Displacement of [125I]I-AB-MECA from mouse adenosine A3 receptor expressed in HEK293 cells after 60 mins by liquid scintillation counting.

A short description of assay [6]: Selectivity ratio of Ki for mouse adenosine A3 receptor to Ki for human recombinant adenosine A3 receptor.

Molecules are shown by their SMILES.

Sequence of Adenosine receptor A2a (P29274 whole entry): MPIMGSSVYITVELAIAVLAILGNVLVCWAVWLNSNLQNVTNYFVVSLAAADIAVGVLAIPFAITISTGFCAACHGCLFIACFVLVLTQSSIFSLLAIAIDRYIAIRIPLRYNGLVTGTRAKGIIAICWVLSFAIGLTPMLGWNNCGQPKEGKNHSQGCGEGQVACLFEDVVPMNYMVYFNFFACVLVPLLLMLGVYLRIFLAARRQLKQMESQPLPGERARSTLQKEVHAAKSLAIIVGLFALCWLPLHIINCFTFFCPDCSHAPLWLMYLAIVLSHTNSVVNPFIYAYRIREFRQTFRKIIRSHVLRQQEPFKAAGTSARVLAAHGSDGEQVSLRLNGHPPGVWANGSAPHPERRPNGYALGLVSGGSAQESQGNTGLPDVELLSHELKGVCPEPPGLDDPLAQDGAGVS

As for `CNC(=O)[C@@]12C[C@@H]1[C@@H](n1cnc3c(NCc4cccc(Cl)c4)nc(C#Cc4ccc(F)c(F)c4)nc31)[C@H](O)[C@@H]2O` (single isomer, unassigned), the inhibition amounted to 6% in assay [1], 41% at Adenosine receptor A2a, 14% in assay [3] and 27% in assay [4]. The same compound came in with an Efficacy in assay [2] of 20%.

With `CNC(=O)[C@@]12C[C@@H]1[C@@H](n1cnc3c(NC)nc(C#Cc4ccc(Br)cc4)nc31)[C@H](O)[C@@H]2O`, the figures for the inhibition (in assay [1]; at Adenosine receptor A2a) were 13% and 26%, respectively. For the same compound, the Efficacy in assay [5] came to 97.5%.

Turning to `CNC(=O)[C@@]12C[C@@H]1[C@@H](n1cnc3c(NCc4cccc(I)c4)ncnc31)[C@H](O)[C@@H]2O`, the Efficacy in assay [5] is 100%.

Take `CNC(=O)[C@@]12C[C@@H]1[C@@H](n1cnc3c(NCc4cccc(Cl)c4)nc(C#Cc4ccccc4)nc31)[C@H](O)[C@@H]2O`: the inhibition turned out to be 20% in assay [1], 27% on Adenosine receptor A2a, 50% in assay [3] and 2% in assay [4]. Also, the Efficacy in assay [5] worked out at 101%.

Consider `CNC(=O)[C@@]12C[C@@H]1[C@@H](n1cnc3c(NC)nc(C#Cc4ccc(Cl)cc4)nc31)[C@H](O)[C@@H]2O`, for which the inhibition worked out at 14% in assay [1] and 30% on Adenosine receptor A2a. Moreover, the Efficacy in assay [5] stood at 97.4%.

In the case of `CNC(=O)[C@@]12C[C@@H]1[C@@H](n1cnc3c(NC)nc(C#Cc4cccc5ccccc45)nc31)[C@H](O)[C@@H]2O`, the inhibition was determined as 25% in assay [1] and 34% on Adenosine receptor A2a. Moreover, the Efficacy in assay [5] turned out to be 94.6%.

On to `CNC(=O)[C@@]12C[C@@H]1[C@@H](n1cnc3c(NC)nc(C#Cc4cccc(F)c4)nc31)[C@H](O)[C@@H]2O`, for which the inhibition in assay [1] worked out at 12%; at Adenosine receptor A2a, 10%. Moreover, the Efficacy in assay [5] was 95.8%.

Regarding `CNC(=O)[C@@]12C[C@@H]1[C@@H](n1cnc3c(NC)nc(C#Cc4cccc(Cl)c4)nc31)[C@H](O)[C@@H]2O`, in assay [1], the inhibition worked out at 10%. For the same compound, the Efficacy is 90.9% in assay [5] and 20% in assay [2].

Consider `CNC(=O)[C@@]12C[C@@H]1[C@@H](n1cnc3c(NC)nc(C#Cc4ccccn4)nc31)[C@H](O)[C@@H]2O`, for which the inhibition came to 11% in assay [1] and 13% on Adenosine receptor A2a.

`CNC(=O)[C@@]12C[C@@H]1[C@@H](n1cnc3c(NCc4cccc(Cl)c4)nc(C#Cc4ccccc4Cl)nc31)[C@H](O)[C@@H]2O`: the inhibition was 19% in assay [1], 52% on Adenosine receptor A2a, 51% in assay [3] and 19% in assay [4]. For the same compound, the Efficacy in assay [5] was 103%. Besides, on Adenosine receptor A3, the Ki stood at 2.64 nM.

`CCc1ccc(C#Cc2nc(NC)c3ncn([C@H]4[C@H](O)[C@H](O)[C@]5(C(=O)NC)C[C@H]45)c3n2)cc1`: the inhibition in assay [1] stood at 13%; on Adenosine receptor A2a it was 38%. Moreover, in assay [5], the Efficacy was 110%.

Regarding `CNC(=O)[C@@]12C[C@@H]1[C@@H](n1cnc3c(NCc4cccc(Cl)c4)nc(C#Cc4ccc(F)cc4)nc31)[C@H](O)[C@@H]2O`, the inhibition is 20% in assay [1], 42% at Adenosine receptor A2a, 65% in assay [3] and 7% in assay [4]. Besides, the Efficacy in assay [5] worked out at 102%; in assay [2] it was 20%. The compound further gave a Ki at Adenosine receptor A3 of 2.38 nM.

`CNC(=O)[C@@]12C[C@@H]1[C@@H](n1cnc3c(NCc4cccc(Cl)c4)nc(C#Cc4cccc(C(=O)O)c4)nc31)[C@H](O)[C@@H]2O`: the inhibition worked out at 6% in assay [1], 38% at Adenosine receptor A2a, 18% in assay [3] and 22% in assay [4]. In addition, the Efficacy in assay [5] was 86.7%. The compound further returned a Ki at Adenosine receptor A3 of 3.66 nM.

Regarding `CNC(=O)[C@@]12C[C@@H]1[C@@H](n1cnc3c(NC)nc(C#Cc4ccc(-c5ccccc5)cc4)nc31)[C@H](O)[C@@H]2O`, the inhibition in assay [1] amounted to 21%; on Adenosine receptor A2a, 29%. Also, the Efficacy in assay [5] worked out at 110%.

As for `CNC(=O)[C@@]12C[C@@H]1[C@@H](n1cnc3c(NC)nc(C#Cc4ccccc4)nc31)[C@H](O)[C@@H]2O`, the inhibition in assay [1] came out at 13%; at Adenosine receptor A2a it was 14%.

Turning to `CNC(=O)[C@@]12C[C@@H]1[C@@H](n1cnc3c(NC)nc(C#Cc4ccccc4Cl)nc31)[C@H](O)[C@@H]2O`, the inhibition in assay [1] is 27%; at Adenosine receptor A2a, 30%; in assay [3], 55%; in assay [4], 2%. The Efficacy in assay [5] is 84.2%. In addition, the Ratio Ki in assay [6] was 70. Further, the Ki on Adenosine receptor A3 came out at 37.2 nM.

Turning to `CNC(=O)[C@@]12C[C@@H]1[C@@H](n1cnc3c(NCc4cccc(Cl)c4)nc(C#Cc4ccc(-c5ccccc5)cc4)nc31)[C@H](O)[C@@H]2O`, the inhibition amounted to 2% in assay [1], 0% at Adenosine receptor A2a, 41% in assay [3] and 6% in assay [4]. Also, the Efficacy in assay [5] was determined as 89%. Besides, in assay [6], the Ratio Ki worked out at 3. The Ki at Adenosine receptor A3 was determined as 10.8 nM.

With `CNC(=O)[C@@]12C[C@@H]1[C@@H](n1cnc3c(NC)nc(C#Cc4cc(F)cc(F)c4)nc31)[C@H](O)[C@@H]2O`, the inhibition in assay [1] turned out to be 8%; on Adenosine receptor A2a, 47%. Further, the Efficacy in assay [5] was 99.6%.

On to `CNC(=O)[C@@]12C[C@@H]1[C@@H](n1cnc3c(NC)nc(C#Cc4cccc(N)c4)nc31)[C@H](O)[C@@H]2O`, for which the inhibition in assay [1] was determined as 10%; at Adenosine receptor A2a, 19%. Besides, the Efficacy in assay [5] was determined as 109%.

Turning to `CNC(=O)[C@@]12C[C@@H]1[C@@H](n1cnc3c(NC)nc(C#Cc4ccc(F)c(F)c4)nc31)[C@H](O)[C@@H]2O`, the inhibition (in assay [1]; on Adenosine receptor A2a) was 6% each time. Also, the Efficacy in assay [5] stood at 108%.

`CNC(=O)[C@@]12C[C@@H]1[C@@H](n1cnc3c(NC)nc(C#Cc4cc5ccccc5c5ccccc45)nc31)[C@H](O)[C@@H]2O`: the inhibition in assay [1] was 15%; on Adenosine receptor A2a, 52%. Also, in assay [5], the Efficacy turned out to be 108%.

For the compound `CNC(=O)[C@@]12C[C@@H]1[C@@H](n1cnc3c(NC)nc(C#Cc4ccccc4F)nc31)[C@H](O)[C@@H]2O`, the inhibition in assay [1] came to 21%; at Adenosine receptor A2a, 17%. Also, the Efficacy in assay [5] was 97.7%.

`CNC(=O)[C@@]12C[C@@H]1[C@@H](n1cnc3c(NC)nc(C#Cc4ccc(C(C)(C)C)cc4)nc31)[C@H](O)[C@@H]2O`: the inhibition in assay [1] is 23%; at Adenosine receptor A2a, 7%. In addition, in assay [5], the Efficacy amounted to 78.4%.
